In BindingDB's records for patent US11248013 (Rakovina Therapeutics, 2022):

Molecular target: Poly [ADP-ribose] polymerase 1 (Homo sapiens, UniProt P09874)
Assay: Enzyme Assay
Method: Inhibition of PARP-1 enzymatic activities was measured using an HT Universal Colorimetric PARP Assay Kit (Trevigen, catalogue #4677-096-K) following the standard procedures. Serial dilutions of PARP compounds were added to appropriate wells. The compound was incubated with PARP enzyme at RT for 10 min, and the reaction was initiated by addition of the PARP substrate cocktail, Each concentration of compound was tested in triplicate wells. After 15 min reaction, the reaction was stopped, and the Strep-HRP was added into each well and incubated for 1 h at RT. After addition of TACS-Sapphire colorimetric substrate and incubated in dark for 15 min, the OD450 was read out with an EnVision instrument. IC50 values (the concentration at which 50% of the enzyme activity is inhibited) were calculated, which are determined over a range of different concentrations, normally from 10 uM to 0.1 nM.

Chain of Poly [ADP-ribose] polymerase 1 (P09874 whole entry): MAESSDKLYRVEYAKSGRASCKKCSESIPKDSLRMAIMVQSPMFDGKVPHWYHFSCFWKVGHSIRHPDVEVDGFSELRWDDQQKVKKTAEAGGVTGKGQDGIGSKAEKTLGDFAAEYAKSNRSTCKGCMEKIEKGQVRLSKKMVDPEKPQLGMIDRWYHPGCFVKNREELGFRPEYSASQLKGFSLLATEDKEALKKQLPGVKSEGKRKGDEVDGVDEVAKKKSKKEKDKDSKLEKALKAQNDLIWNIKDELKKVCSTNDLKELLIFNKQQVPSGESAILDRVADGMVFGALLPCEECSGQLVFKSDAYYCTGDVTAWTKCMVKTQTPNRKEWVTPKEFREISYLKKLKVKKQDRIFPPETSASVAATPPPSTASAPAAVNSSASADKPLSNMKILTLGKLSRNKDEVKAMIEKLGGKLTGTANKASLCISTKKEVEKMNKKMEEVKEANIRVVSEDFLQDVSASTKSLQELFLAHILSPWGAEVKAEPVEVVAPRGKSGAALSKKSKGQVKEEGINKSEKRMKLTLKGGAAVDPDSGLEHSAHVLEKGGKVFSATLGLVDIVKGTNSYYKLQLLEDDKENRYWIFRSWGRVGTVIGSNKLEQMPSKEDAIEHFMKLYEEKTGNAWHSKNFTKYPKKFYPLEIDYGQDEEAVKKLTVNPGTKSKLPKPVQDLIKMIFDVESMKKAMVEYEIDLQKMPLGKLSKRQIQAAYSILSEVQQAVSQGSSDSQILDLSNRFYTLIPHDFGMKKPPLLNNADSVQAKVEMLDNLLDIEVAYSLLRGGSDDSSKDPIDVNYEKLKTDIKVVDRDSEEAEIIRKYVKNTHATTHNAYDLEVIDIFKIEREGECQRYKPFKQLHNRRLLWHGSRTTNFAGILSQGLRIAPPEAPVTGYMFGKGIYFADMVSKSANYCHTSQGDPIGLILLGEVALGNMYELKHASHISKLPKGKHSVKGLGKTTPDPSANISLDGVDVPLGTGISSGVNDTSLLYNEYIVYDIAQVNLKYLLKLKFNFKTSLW

IC50: in the range around 550 nM
SMILES: CC(C)(C)C(=O)N1CCP(=O)(c2cc(Cc3n[nH]c(=O)c4ccccc34)ccc2F)CC1 [US11248013, Example 10]
